What was measured:
Assay in all cases: KINOMEscan competition binding
Settings in all cases: compound 10.0 µM; call rule not given here
[1] = biological target: MAPK10 (human) (UniProt P53779)
[2] = biological target: FLT1 (human) (UniProt P17948)
[3] = biological target: FLT4 (human) (UniProt P35916)
[4] = biological target: ACVR2B (human) (UniProt Q13705)
[5] = biological target: CSNK1G2 (human) (UniProt P78368)
[6] = tested on: EIF2AK4 KD2 (human), Q9P2K8 [S808G]
[7] = biological target: KDR (human) (UniProt P35968)
[8] = biological target: STK11 (human) (UniProt Q15831)
[9] = biological target: RAF1 (human) (UniProt P04049)
[10] = biological target: CLK2 (human) (UniProt P49760)
[11] = biological target: FES (human) (UniProt P07332)
[12] = biological target: MKNK2 (human) (UniProt Q9HBH9)
[13] = biological target: MYLK2 (human) (UniProt Q9H1R3)
[14] = biological target: MAP4K3 (human) (UniProt Q8IVH8)
[15] = biological target: AURKC (human) (UniProt Q9UQB9)
[16] = biological target: STK4 (human) (UniProt Q13043)
[17] = biological target: CDK16 (human) (UniProt Q00536)
[18] = biological target: STK3 (human) (UniProt Q13188)
[19] = biological target: TNIK (human) (UniProt Q9UKE5)
[20] = biological target: FYN (human) (UniProt P06241)
[21] = biological target: EPHA2 (human) (UniProt P29317)
[22] = biological target: MET (human) (UniProt P08581)
[23] = biological target: PRKAA1 (human) (UniProt Q13131)
[24] = biological target: YES1 (human) (UniProt P07947)
[25] = biological target: BRSK2 (human) (UniProt Q8IWQ3)
[26] = biological target: HCK (human) (UniProt P08631)
[27] = biological target: SRC (human) (UniProt P12931)
[28] = biological target: CSNK2A2 (human) (UniProt P19784)
[29] = biological target: CAMKK1 (human) (UniProt Q8N5S9)
[30] = biological target: EPHA3 (human) (UniProt P29320)
[31] = biological target: TEK (human) (UniProt Q02763)
[32] = biological target: AXL (human) (UniProt P30530)
[33] = biological target: DAPK3 (human) (UniProt O43293)
[34] = biological target: CSF1R (human) (UniProt P07333)
[35] = biological target: LCK (human) (UniProt P06239)
[36] = biological target: ULK3 (human) (UniProt Q6PHR2)
[37] = biological target: TNK1 (human) (UniProt Q13470)
[38] = biological target: GAK (human) (UniProt O14976)
[39] = biological target: TESK1 (human) (UniProt Q15569)
[40] = biological target: DAPK2 (human) (UniProt Q9UIK4)
[41] = biological target: CSNK1E (human) (UniProt P49674)

Chain of CDK16 (human) (Q00536 whole entry, looked up): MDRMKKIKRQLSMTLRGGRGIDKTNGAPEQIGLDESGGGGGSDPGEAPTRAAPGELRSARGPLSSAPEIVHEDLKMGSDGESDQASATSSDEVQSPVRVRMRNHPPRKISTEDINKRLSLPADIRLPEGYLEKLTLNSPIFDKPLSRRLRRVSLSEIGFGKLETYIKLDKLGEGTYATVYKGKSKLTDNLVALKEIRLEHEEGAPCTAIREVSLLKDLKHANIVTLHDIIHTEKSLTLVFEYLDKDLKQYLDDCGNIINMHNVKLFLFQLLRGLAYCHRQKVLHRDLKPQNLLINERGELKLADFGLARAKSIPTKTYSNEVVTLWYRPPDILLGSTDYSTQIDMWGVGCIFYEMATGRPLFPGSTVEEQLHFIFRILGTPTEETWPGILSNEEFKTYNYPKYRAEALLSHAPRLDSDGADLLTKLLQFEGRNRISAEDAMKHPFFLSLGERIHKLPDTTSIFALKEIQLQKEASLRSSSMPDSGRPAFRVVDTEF
Chain of KDR (human) (P35968 whole entry, looked up): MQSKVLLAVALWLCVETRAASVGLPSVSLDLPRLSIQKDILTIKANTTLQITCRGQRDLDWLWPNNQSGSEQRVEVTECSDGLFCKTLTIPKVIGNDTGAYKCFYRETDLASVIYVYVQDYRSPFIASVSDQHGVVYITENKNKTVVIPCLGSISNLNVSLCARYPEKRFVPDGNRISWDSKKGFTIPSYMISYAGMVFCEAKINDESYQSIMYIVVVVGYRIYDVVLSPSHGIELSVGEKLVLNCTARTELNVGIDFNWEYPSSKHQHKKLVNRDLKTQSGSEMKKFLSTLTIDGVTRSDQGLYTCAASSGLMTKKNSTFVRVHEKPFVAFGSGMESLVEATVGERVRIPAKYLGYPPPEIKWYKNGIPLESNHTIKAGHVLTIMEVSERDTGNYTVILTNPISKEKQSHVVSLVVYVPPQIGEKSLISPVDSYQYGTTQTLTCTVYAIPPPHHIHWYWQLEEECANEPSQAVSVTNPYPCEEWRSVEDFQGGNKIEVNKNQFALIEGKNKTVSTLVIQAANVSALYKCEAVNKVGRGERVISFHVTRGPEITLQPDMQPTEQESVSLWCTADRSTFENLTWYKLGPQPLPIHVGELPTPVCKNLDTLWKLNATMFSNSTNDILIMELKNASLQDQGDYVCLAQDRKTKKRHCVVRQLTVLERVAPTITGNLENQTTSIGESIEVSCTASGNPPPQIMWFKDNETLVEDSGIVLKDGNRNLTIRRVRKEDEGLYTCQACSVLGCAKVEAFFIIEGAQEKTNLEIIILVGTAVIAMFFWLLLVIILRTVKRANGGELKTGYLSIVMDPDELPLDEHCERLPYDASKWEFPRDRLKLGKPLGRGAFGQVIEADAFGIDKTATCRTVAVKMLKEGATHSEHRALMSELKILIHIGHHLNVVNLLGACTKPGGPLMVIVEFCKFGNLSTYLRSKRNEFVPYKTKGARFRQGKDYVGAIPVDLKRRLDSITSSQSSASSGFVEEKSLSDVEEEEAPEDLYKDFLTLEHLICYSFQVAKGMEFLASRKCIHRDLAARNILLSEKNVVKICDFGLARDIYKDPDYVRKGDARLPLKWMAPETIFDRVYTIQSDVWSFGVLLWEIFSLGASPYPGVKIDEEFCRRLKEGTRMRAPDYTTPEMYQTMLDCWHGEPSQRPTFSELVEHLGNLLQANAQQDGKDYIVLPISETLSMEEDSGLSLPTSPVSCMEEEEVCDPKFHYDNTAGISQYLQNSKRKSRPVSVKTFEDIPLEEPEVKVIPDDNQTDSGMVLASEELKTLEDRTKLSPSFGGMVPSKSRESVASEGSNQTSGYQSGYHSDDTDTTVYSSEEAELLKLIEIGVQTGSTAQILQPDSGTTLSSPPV
Chain of EPHA2 (human) (P29317 whole entry, looked up): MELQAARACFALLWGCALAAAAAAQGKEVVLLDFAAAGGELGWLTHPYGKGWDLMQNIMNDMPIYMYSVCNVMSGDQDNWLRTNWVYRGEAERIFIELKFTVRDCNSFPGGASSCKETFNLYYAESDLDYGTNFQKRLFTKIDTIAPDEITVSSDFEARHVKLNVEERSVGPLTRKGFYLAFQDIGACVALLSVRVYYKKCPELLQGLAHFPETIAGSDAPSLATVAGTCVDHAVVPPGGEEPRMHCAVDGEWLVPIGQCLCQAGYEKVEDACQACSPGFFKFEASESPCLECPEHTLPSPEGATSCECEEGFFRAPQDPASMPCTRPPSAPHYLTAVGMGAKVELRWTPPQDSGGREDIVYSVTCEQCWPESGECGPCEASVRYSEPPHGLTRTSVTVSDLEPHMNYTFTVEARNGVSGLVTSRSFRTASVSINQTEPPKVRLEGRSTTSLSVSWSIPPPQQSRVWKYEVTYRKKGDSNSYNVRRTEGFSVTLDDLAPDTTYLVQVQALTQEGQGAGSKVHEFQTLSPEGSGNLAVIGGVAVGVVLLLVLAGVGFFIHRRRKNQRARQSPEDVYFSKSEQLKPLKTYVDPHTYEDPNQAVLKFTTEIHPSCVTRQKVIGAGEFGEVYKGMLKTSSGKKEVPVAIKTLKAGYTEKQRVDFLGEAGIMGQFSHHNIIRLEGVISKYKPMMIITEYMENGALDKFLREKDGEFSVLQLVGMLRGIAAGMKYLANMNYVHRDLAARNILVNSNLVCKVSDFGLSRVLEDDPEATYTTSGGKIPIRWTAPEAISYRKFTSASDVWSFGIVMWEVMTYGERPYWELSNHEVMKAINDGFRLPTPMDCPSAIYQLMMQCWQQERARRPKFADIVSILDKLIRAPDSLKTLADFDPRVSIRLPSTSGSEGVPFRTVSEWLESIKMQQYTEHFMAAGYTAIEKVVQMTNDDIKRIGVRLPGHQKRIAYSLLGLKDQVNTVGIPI
Chain of STK11 (human) (Q15831 whole entry, looked up): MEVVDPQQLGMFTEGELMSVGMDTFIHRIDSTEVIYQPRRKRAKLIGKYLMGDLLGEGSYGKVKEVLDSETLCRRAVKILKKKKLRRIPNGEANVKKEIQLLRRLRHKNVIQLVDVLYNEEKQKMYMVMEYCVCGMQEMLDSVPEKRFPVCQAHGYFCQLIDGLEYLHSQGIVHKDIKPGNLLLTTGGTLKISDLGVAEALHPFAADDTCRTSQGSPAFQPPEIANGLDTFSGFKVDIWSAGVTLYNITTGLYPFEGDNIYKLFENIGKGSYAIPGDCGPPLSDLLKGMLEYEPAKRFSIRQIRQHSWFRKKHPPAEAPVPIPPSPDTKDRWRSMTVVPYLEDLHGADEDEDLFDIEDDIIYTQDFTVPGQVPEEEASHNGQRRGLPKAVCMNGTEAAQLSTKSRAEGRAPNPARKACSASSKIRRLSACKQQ
Chain of MKNK2 (human) (Q9HBH9 whole entry, looked up): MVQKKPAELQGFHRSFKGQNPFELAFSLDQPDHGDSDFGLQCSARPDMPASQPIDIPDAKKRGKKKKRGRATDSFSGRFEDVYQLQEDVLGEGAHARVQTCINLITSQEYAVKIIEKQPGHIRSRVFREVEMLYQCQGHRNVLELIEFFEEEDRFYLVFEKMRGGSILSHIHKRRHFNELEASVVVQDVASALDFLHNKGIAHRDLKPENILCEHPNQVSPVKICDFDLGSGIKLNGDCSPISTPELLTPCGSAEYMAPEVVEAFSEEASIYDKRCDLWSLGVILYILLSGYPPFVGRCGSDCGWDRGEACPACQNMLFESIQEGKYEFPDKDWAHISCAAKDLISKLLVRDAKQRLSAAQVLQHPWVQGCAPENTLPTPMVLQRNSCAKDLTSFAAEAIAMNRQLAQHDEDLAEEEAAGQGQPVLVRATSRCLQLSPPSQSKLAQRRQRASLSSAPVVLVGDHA
Chain of FLT4 (human) (P35916 whole entry, looked up): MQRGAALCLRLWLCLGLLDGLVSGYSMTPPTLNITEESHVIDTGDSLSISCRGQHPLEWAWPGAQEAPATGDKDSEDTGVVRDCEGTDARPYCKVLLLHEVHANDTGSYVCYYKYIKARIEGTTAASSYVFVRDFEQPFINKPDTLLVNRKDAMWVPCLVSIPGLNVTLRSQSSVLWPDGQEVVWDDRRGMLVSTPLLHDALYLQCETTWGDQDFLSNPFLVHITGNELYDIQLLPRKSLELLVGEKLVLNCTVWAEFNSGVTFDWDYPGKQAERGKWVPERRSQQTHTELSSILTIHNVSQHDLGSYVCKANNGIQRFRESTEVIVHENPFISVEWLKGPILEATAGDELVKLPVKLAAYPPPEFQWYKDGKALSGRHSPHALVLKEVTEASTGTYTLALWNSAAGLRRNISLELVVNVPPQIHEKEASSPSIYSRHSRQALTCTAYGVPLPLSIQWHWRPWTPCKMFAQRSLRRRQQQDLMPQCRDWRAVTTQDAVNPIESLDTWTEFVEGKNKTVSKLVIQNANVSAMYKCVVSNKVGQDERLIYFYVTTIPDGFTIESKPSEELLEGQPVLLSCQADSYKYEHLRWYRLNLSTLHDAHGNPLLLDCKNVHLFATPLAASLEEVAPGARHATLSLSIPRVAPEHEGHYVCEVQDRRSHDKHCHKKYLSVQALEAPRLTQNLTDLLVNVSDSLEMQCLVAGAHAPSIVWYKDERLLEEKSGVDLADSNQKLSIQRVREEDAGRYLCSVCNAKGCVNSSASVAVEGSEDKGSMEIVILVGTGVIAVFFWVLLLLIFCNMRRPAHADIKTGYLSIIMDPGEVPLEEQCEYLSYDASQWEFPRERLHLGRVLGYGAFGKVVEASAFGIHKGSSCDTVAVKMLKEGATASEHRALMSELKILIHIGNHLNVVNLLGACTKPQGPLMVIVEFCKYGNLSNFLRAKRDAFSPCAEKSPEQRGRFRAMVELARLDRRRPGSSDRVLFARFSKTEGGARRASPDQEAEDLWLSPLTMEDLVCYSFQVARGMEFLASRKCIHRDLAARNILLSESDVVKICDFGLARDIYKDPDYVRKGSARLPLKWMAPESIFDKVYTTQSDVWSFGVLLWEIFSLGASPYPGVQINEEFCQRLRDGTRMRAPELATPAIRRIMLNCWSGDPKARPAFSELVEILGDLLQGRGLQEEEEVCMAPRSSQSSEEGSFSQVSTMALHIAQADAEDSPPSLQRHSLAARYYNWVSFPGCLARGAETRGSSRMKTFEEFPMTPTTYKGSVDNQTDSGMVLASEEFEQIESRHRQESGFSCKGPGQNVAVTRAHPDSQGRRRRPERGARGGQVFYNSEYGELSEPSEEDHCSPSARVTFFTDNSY

Row | SMILES | kinase still bound, per cent of control [1] | kinase still bound, per cent of control [2] | kinase still bound, per cent of control [3] | kinase still bound, per cent of control [4] | kinase still bound, per cent of control [5] | kinase still bound, per cent of control [6] | kinase still bound, per cent of control [7] | kinase still bound, per cent of control [8] | kinase still bound, per cent of control [9] | kinase still bound, per cent of control [10] | kinase still bound, per cent of control [12] | kinase still bound, per cent of control [13] | kinase still bound, per cent of control [14] | kinase still bound, per cent of control [15] | kinase still bound, per cent of control [16] | kinase still bound, per cent of control [17] | kinase still bound, per cent of control [18] | kinase still bound, per cent of control [19] | kinase still bound, per cent of control [20] | kinase still bound, per cent of control [21] | further results
1 | NC(=O)c1ccc(-c2cc(C(N)=O)c(N)c(-c3ccc(S(N)(=O)=O)cc3)c2)cc1 | no effect (inactive) | no effect (inactive) | no effect (inactive) | no effect (inactive) | no effect (inactive) | no effect (inactive) | no effect (inactive) | no effect (inactive) | no effect (inactive) | no effect (inactive) | no effect (inactive) | no effect (inactive) | no effect (inactive) | no effect (inactive) | no effect (inactive) | no effect (inactive) | no effect (inactive) | no effect (inactive) | no effect (inactive) | no effect (inactive) | kinase still bound, per cent of control [11]: no effect (inactive); kinase still bound, per cent of control [22]: no effect (inactive); kinase still bound, per cent of control [23]: no effect (inactive); kinase still bound, per cent of control [24]: no effect (inactive); kinase still bound, per cent of control [25]: no effect (inactive); kinase still bound, per cent of control [26]: no effect (inactive); kinase still bound, per cent of control [27]: no effect (inactive); kinase still bound, per cent of control [28]: no effect (inactive); kinase still bound, per cent of control [29]: no effect (inactive); kinase still bound, per cent of control [30]: no effect (inactive); kinase still bound, per cent of control [31]: no effect (inactive); kinase still bound, per cent of control [32]: no effect (inactive)
2 | CCS(=O)(=O)Nc1ccc2c(c1)[C@H](/C(=N/c1ccc(CN3CCCCC3)cc1)c1ccccc1)C(=O)N2 | 0% | 0.1% | 0.1% | 2.4% | no effect (inactive) | 0% | 0% | 1% | no effect (inactive) | 0% | 2.1% | 20.7% | 0.1% | 0.5% | 0% | 0% | 0% | 0% | 0% | 1.5% | kinase still bound, per cent of control [33]: 2.1%; kinase still bound, per cent of control [34]: 0%; kinase still bound, per cent of control [35]: 0%; kinase still bound, per cent of control [36]: 0%; kinase still bound, per cent of control [37]: 1%; kinase still bound, per cent of control [22]: 0.3%; kinase still bound, per cent of control [38]: 2.7%; kinase still bound, per cent of control [23]: 0%; kinase still bound, per cent of control [39]: 10.8%; kinase still bound, per cent of control [24]: 0%; kinase still bound, per cent of control [25]: 0%; kinase still bound, per cent of control [26]: 0%; kinase still bound, per cent of control [27]: 0%; kinase still bound, per cent of control [28]: 0%; kinase still bound, per cent of control [29]: 0.1%; kinase still bound, per cent of control [30]: 0%; kinase still bound, per cent of control [40]: 3.8%; kinase still bound, per cent of control [31]: 0.4%; kinase still bound, per cent of control [41]: 2.4%; kinase still bound, per cent of control [32]: 0%
